# Where “and” joins values, the source holds several entries; their conditions need not be identical. Equal entries are not always repeated. Inconclusive results and toxic doses are left out.
# Test system: L1210 leukemia ip in BDF1 mice, survival T/C
# Assay: NCI In Vivo Anticancer Drug Screen. Data for tumor model L1210 Leukemia (intraperitoneal) in B6D2F1 (BDF1) mice
# Details: endpoint: mean survival time, higher = longer survival
# Summary of the method: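 Value reflects the ratio of survival in compound-treated mice to survival in vehicle-treated controls, with both groups carrying the same transplanted tumor.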
# [1] = dose: 100.0 mg/kg/injection, schedule: Q04DX003 (ip), vehicle: saline with Tween-80
# [2] = dose: 200.0 mg/kg/injection, schedule: Q04DX003 (ip), vehicle: saline with Tween-80
# [3] = dose: 400.0 mg/kg/injection, schedule: Q04DX003 (ip), vehicle: saline with Tween-80
# [4] = dose: 100.0 mg/kg/injection, schedule: Q01DX001 (ip), vehicle: saline
# [5] = dose: 200.0 mg/kg/injection, schedule: Q01DX001 (ip), vehicle: saline
# [6] = dose: 100.0 mg/kg/injection, schedule: Q01DX009 (ip), vehicle: Klucel (hydroxypropylcellulose) (HPC)
# [7] = dose: 100.0 mg/kg/injection, schedule: Q04DX003 (ip), vehicle: Klucel (hydroxypropylcellulose) (HPC)
# [8] = dose: 200.0 mg/kg/injection, schedule: Q01DX009 (ip), vehicle: Klucel (hydroxypropylcellulose) (HPC)
# [9] = dose: 200.0 mg/kg/injection, schedule: Q04DX003 (ip), vehicle: Klucel (hydroxypropylcellulose) (HPC)
# [10] = dose: 400.0 mg/kg/injection, schedule: Q01DX009 (ip), vehicle: Klucel (hydroxypropylcellulose) (HPC)
# [11] = dose: 400.0 mg/kg/injection, schedule: Q04DX003 (ip), vehicle: Klucel (hydroxypropylcellulose) (HPC)
# [12] = dose: 100.0 mg/kg/injection, schedule: Q04DX003 (ip), vehicle: saline
# [13] = dose: 200.0 mg/kg/injection, schedule: Q04DX003 (ip), vehicle: saline
# [14] = dose: 400.0 mg/kg/injection, schedule: Q04DX003 (ip), vehicle: saline
# [15] = dose: 400.0 mg/kg/injection, schedule: Q01DX001 (ip), vehicle: saline
# [16] = dose: 100.0 mg/kg/injection, schedule: Q01DX001 (ip), vehicle: carboxymethylcellulose (CMC)
# [17] = dose: 200.0 mg/kg/injection, schedule: Q01DX001 (ip), vehicle: carboxymethylcellulose (CMC)
# [18] = dose: 400.0 mg/kg/injection, schedule: Q01DX001 (ip), vehicle: carboxymethylcellulose (CMC)
compound,measurement,setting,value
CCN(CC)C(=O)CS(=O)(=O)c1ccc(C)cc1,T/C,[1],96 % of control
same,T/C,[2],110 % of control
same,T/C,[3],98 % of control
O=[N+]([O-])c1ccc(Sc2ccsc2)c([N+](=O)[O-])c1,T/C,[4],101 % of control
same,T/C,[5],98 % of control
NC(CO)CO,T/C,"dose: 100.0 mg/kg/injection, schedule: Q04DX002 (ip), vehicle: saline",105 % of control
same,T/C,"dose: 200.0 mg/kg/injection, schedule: Q04DX002 (ip), vehicle: saline",108 % of control
same,T/C,"dose: 400.0 mg/kg/injection, schedule: Q04DX002 (ip), vehicle: saline",105 % of control
O=C(NCCCl)Nc1cccc2cc3ccccc3cc12,T/C,[6],95 % of control
same,T/C,[7],96 % of control
same,T/C,[8],103 % of control
same,T/C,[9],96 % of control
same,T/C,[10],95 % of control
same,T/C,[11],102 % of control
CCNc1c([N+](=O)[O-])cc(S(=O)(=O)O)cc1[N+](=O)[O-],T/C,[12],116 % of control
same,T/C,[13],105 % of control
same,T/C,[14],95 % of control
c1ccc([P+](CC2CCCO2)(c2ccccc2)c2ccccc2)cc1 (stereo not drawn),T/C,[4],113 % of control
O=C1CC(OC(=O)c2ccccc2)(c2ccccc2)OC(c2ccccc2)=C1c1ccccc1 (stereo not drawn),T/C,[4],101 % of control
same,T/C,[7],97 % of control
same,T/C,[5],104 % of control
same,T/C,[9],100 % of control
same,T/C,[15],96 % of control
same,T/C,[11],100 % of control
CN1CCCC(CC2c3ccccc3Sc3ccccc32)C1 (stereo not drawn),T/C,"dose: 2.0 mg/kg/injection, schedule: Q01DX015 (ip), vehicle: carboxymethylcellulose (CMC)",108 % of control
same,T/C,"dose: 4.0 mg/kg/injection, schedule: Q01DX015 (ip), vehicle: carboxymethylcellulose (CMC)",98 % of control
same,T/C,"dose: 8.0 mg/kg/injection, schedule: Q01DX015 (ip), vehicle: carboxymethylcellulose (CMC)",97 % of control
same,T/C,"dose: 16.0 mg/kg/injection, schedule: Q01DX015 (ip), vehicle: carboxymethylcellulose (CMC)",91 % of control
same,T/C,"dose: 32.0 mg/kg/injection, schedule: Q01DX015 (ip), vehicle: carboxymethylcellulose (CMC)",92 % of control
O=C1OC(=O)C2C1C1(Cl)C(Cl)=C(Cl)C2(Cl)C2C(=O)OC(=O)C21 (stereo not drawn),T/C,"dose: 100.0 mg/kg/injection, schedule: Q01DX009 (ip), vehicle: saline",94 % of control
same,T/C,[12],95 % of control
same,T/C,"dose: 200.0 mg/kg/injection, schedule: Q01DX009 (ip), vehicle: saline",90 % of control
same,T/C,[13],95 % of control
same,T/C,"dose: 400.0 mg/kg/injection, schedule: Q01DX009 (ip), vehicle: saline",91 % of control
same,T/C,[14],95 % of control
COc1ccccc1-n1c(=O)c(N=Nc2ccc(Br)cc2)c(O)n(-c2ccccc2C)c1=S,T/C,"dose: 100.0 mg/kg/injection, schedule: Q01DX001 (ip), vehicle: Klucel (hydroxypropylcellulose) (HPC)",109 % of control
same,T/C,"dose: 200.0 mg/kg/injection, schedule: Q01DX001 (ip), vehicle: Klucel (hydroxypropylcellulose) (HPC)",98 % of control
same,T/C,"dose: 400.0 mg/kg/injection, schedule: Q01DX001 (ip), vehicle: Klucel (hydroxypropylcellulose) (HPC)",98 % of control
O=C1C(NC(=O)C2CCCCC2)=C(N2CC2)C(=O)C(NC(=O)C2CCCCC2)=C1N1CC1,T/C,"dose: 50.0 mg/kg/injection, schedule: Q01DX010 (ip), vehicle: saline",93 % of control and 101 % of control
same,T/C,"dose: 50.0 mg/kg/injection, schedule: Q01DX Z (ip), vehicle: Klucel (hydroxypropylcellulose) (HPC)",105 % of control
same,T/C,"dose: 78.0 mg/kg/injection, schedule: Q01DX Z (ip), vehicle: carboxymethylcellulose (CMC)",115 % of control
same,T/C,"dose: 100.0 mg/kg/injection, schedule: Q01DX010 (ip), vehicle: saline",101 % of control and 104 % of control
same,T/C,"dose: 100.0 mg/kg/injection, schedule: Q01DX Z (ip), vehicle: Klucel (hydroxypropylcellulose) (HPC)",109 % of control
same,T/C,"dose: 117.0 mg/kg/injection, schedule: Q01DX Z (ip), vehicle: carboxymethylcellulose (CMC)",104 % of control
same,T/C,"dose: 175.0 mg/kg/injection, schedule: Q01DX Z (ip), vehicle: carboxymethylcellulose (CMC)",119 % of control
same,T/C,"dose: 200.0 mg/kg/injection, schedule: Q01DX010 (ip), vehicle: saline",98 % of control and 115 % of control
same,T/C,"dose: 263.0 mg/kg/injection, schedule: Q01DX Z (ip), vehicle: carboxymethylcellulose (CMC)",150 % of control
same,T/C,"dose: 400.0 mg/kg/injection, schedule: Q01DX010 (ip), vehicle: saline",98 % of control and 104 % of control
same,T/C,"dose: 400.0 mg/kg/injection, schedule: Q01DX Z (ip), vehicle: Klucel (hydroxypropylcellulose) (HPC)",102 % of control
same,T/C,"dose: 440.0 mg/kg/injection, schedule: Q01DX001 (ip), vehicle: carboxymethylcellulose (CMC)",102 % of control and 119 % of control
same,T/C,"dose: 670.0 mg/kg/injection, schedule: Q01DX001 (ip), vehicle: carboxymethylcellulose (CMC)",103 % of control and 91 % of control
same,T/C,"dose: 1000.0 mg/kg/injection, schedule: Q01DX001 (ip), vehicle: carboxymethylcellulose (CMC)",101 % of control and 103 % of control
CCCc1ccc(OCC=C(C)C)cc1,T/C,"dose: 50.0 mg/kg/injection, schedule: Q04DX002 (ip), vehicle: saline with Tween-80",100 % of control
same,T/C,"dose: 100.0 mg/kg/injection, schedule: Q04DX002 (ip), vehicle: saline with Tween-80",100 % of control
COC1=C(NCCc2ccccc2)C(=O)C(OC)=C(NCCc2ccccc2)C1=O,T/C,"dose: 50.0 mg/kg/injection, schedule: Q01DX001 (ip), vehicle: carboxymethylcellulose (CMC)",96 % of control
same,T/C,[16],94 % of control
same,T/C,[17],89 % of control
same,T/C,[18],89 % of control
Nc1cccc(/C=C/C=C\c2cccc([N+](=O)[O-])c2)c1,T/C,[4],97 % of control
same,T/C,[5],94 % of control
same,T/C,[15],92 % of control
CC(=O)Nc1ccc(NC(=O)/C=C/c2ccccc2)cc1,T/C,[6],103 % of control
same,T/C,[8],95 % of control
same,T/C,[10],105 % of control
CC(OC(=O)c1ccccc1C(=O)O)c1ccccc1 (stereo not drawn),T/C,[16],93 % of control
same,T/C,[17],96 % of control
same,T/C,[18],96 % of control
Cc1ccc(-c2nn[nH]n2)cc1,T/C,[12],97 % of control
same,T/C,[13],96 % of control
same,T/C,[14],96 % of control
CC(=O)Oc1ccc(OC(C)=O)c2c1C=CC=CC2,T/C,[1],104 % of control
same,T/C,[2],86 % of control
same,T/C,[3],94 % of control
O=C(N/N=C(\C=N\NC(=O)c1ccccc1)CC(O)CO)c1ccccc1 (stereo not drawn),T/C,"dose: 25.0 mg/kg/injection, schedule: Q01DX009 (ip), vehicle: Klucel (hydroxypropylcellulose) (HPC)",93 % of control
same,T/C,"dose: 50.0 mg/kg/injection, schedule: Q01DX009 (ip), vehicle: Klucel (hydroxypropylcellulose) (HPC)",91 % of control
same,T/C,[6],91 % of control
same,T/C,[1],94 % of control
same,T/C,[2],93 % of control
